SMILES strings stand for the structures.

In general, IC50 refers to the concentration that inhibits the measured activity by half.

The target of this test is recombinant S. aureus FabI enzyme (Staphylococcus aureus (strain MRSA252), UniProt Q6GI75). The test is described as follows: FabI inhibition, fluorescence based assay. The test is classed as biochemical. The conditions noted are these: in vitro. How it is done: Compound inhibitory activity of FabI enzyme is measured in vitro by the […] determination using a fluorescence based assay.
The protein FabI from S. aureus is prepared and purified using standard methods for recombinant protein expression after cloning of the gene in a prokaryotic expression vector.
The biochemical activity of the FabI enzyme is assessed using the following method.
The assay buffer “AB” contained 50 mM ADA (N-(2-acetamido)iminodiacetic acid monosodium salt) pH 6.5, 1 mM dithiothreitol, 0.006% Triton-X100 and 50 mM NaCl.
The following components are added in a white polystyrene Costar plate (Ref 3912) up to a final volume of 55.5 μL: 1.5 μL DMSO or inhibitor dissolved in DMSO and 54 μL of a FabI/NADPH/NADP+ mixture in AB. After 60 min of pre-incubation at room temperature, the reaction is started by addition of 5 μL of trans-2-octenoyl N-acetylcysteamine thioester (t-o-NAC) to a final volume of 60.5 μL. This reaction mixture is then composed of 2 nM FabI, 40 μM NADPH (Sigma, N7505), 10 μM NADP+ (Sigma, N5755), 100 μM t-O-NAC and compound at defined concentration. Fluorescence intensity of NADPH (λex=360 nm, […]) is measured immediately after t-O-NAC addition (T0), and approximately 50 min later (T50) by a Fluostar Optima (BMG) so as to achieve ±30% of NADPH conversion. Enzyme activity is calculated by first subtracting TO signal to T50 and then subtracting background signal (FabI=0). Percentages of inhibition are calculated against untreated samples (Inhibitor=0) and IC50 are fitted to a classical Langmuir equilibrium model using XLFIT (IDBS).
As for `O=C1CCc2cc(/C=C/C(=O)N3CCC(COc4ccc(F)cc4)CC3)cnc2N1` [Example 5, 6-[(1E)-3-{[4-(4-Fluorophenoxy)methyl]piperidin-1-yl}-3-oxoprop-1-en-1-yl]-3,4-dihydro-1,8-naphthyridin-2(1H)-one], the 50% inhibitory concentration (IC50) is 0.25 µM.

For `O=C1CCc2cc(/C=C/C(=O)N3CC(OCc4ccccc4)C3)cnc2N1` [Example 17, 6-{(1E)-3-[3-(Benzyloxy)azetidin-1-yl]-3-oxoprop-1-en-1-yl}-3,4-dihydro-1,8-naphthyridin-2(1H)-one], the 50% inhibitory concentration (IC50) was 0.05 µM.

In the case of `C=C(C)COC1CN(C(=O)/C=C/c2cnc3c(c2)CCC(=O)N3)C1` [Example 19, 6-[(1E)-3-{3-[(2-Methylprop-2-en-1-yl)oxy]azetidin-1-yl}-3-oxoprop-1-en-1-yl]-3,4-dihydro-1,8-naphthyridin-2(1H)-one], the IC50 turned out to be 0.17 µM. Next, `O=C1CCc2cc(/C=C/C(=O)N3CCC(Oc4cccnc4)C3)cnc2N1` (stereo not drawn) [Example 16, 6-{(1E)-3-Oxo-3-[3-(pyridin-3-yloxy)pyrrolidin-1-yl]prop-1-en-1-yl}-3,4-dihydro-1,8-naphthyridin-2(1H)-one]: 0.93 µM; `O=C1CCc2cc(/C=C/C(=O)N3CCC3)cnc2N1` [Example 1, 6-[(1E)-3-Azetidin-1-yl-3-oxoprop-1-en-1-yl]-3,4-dihydro-1,8-naphthyridin-2(1H)-one]: 11 µM. Then `CCCCCS(=O)(=O)C1CN(C(=O)/C=C/c2cnc3c(c2)CCC(=O)N3)C1` [Example 22, 6-{(1E)-3-[3-(Pentylsulfonyl)azetidin-1-yl]-3-oxoprop-1-en-1-yl}-3,4-dihydro-1,8-naphthyridin-2(1H)-one], with 8.6 µM; and `O=C1Nc2ncc(/C=C/C(=O)N3CCC(COc4ccc(F)cc4)CC3)cc2CC1CO` (stereo not drawn) [Example 28, 3-(Hydroxymethyl)-6-[(1E)-3-{4-[(4-fluorophenoxy)methyl]piperidin-1-yl}-3-oxoprop-1-en-1-yl]-3,4-dihydro-1,8-naphthyridin-2(1H)-one], with 0.081 µM; and `CC(Cc1ncccn1)=NOC1CN(C(=O)/C=C/c2cnc3c(c2)CCC(=O)N3)C1` (racemic) [Example 21, 6-{(1E)-3-[3-({[(1E)-1-Methyl-2-pyrimidin-2-ylethylidene]amino}oxy)azetidin-1-yl]-3-oxoprop-1-en-1-yl}-3,4-dihydro-1,8-naphthyridin-2(1H)-one], with 0.87 µM. As for `O=C1CCc2cc(/C=C/C(=O)N3CCCC3)cnc2N1` [Example 2, 6-[(1E)-3-Oxo-3-pyrrolidin-1-ylprop-1-en-1-yl]-3,4-dihydro-1,8-naphthyridin-2(1H)-one], the 50% inhibitory concentration (IC50) is 5.5 µM. Next, `Cc1nc(C2CCCCN2C(=O)/C=C/c2cnc3c(c2)CCC(=O)N3)no1` (stereo not drawn) [Example 13, 6-{(1E)-3-[2-(5-Methyl-1,2,4-oxadiazol-3-yl)piperidin-1-yl]-3-oxoprop-1-en-1-yl}-3,4-dihydro-1,8-naphthyridin-2(1H)-one]: 4.1 µM; `O=C1CCc2cc(/C=C/C(=O)N3CCCC(COc4ccc(F)cc4)C3)cnc2N1` (stereo not drawn) [Example 9, 6-[(1E)-3-{[3-(4-Fluorophenoxy)methyl]piperidin-1-yl}-3-oxoprop-1-en-1-yl]-3,4-dihydro-1,8-naphthyridin-2(1H)-one]: 1.3 µM; `O=C1CCc2cc(/C=C/C(=O)N3CCCC3c3ccccc3)cnc2N1` (stereo not drawn) [Example 7, 6-[(1E)-3-Oxo-3-(2-phenylpyrrolidin-1-yl)prop-1-en-1-yl]-3,4-dihydro-1,8-naphthyridin-2(1H)-one]: 7.1 µM.

For the molecule `O=C1CCc2cc(/C=C/C(=O)N3CCC(O)(c4ccccc4)CC3)cnc2N1` [Example 14, 6-{(1E)-3-[4-Hydroxy-4-phenylpiperidin-1-yl]-3-oxoprop-1-en-1-yl}-3,4-dihydro-1,8-naphthyridin-2(1H)-one], the IC50 stood at 0.34 µM. Next, `Cc1nc(C2CN(C(=O)/C=C/c3cnc4c(c3)CCC(=O)N4)C2)no1` [Example 11, 6-{(1E)-3-[3-(5-Methyl-1,2,4-oxadiazol-3-yl)azetidin-1-yl]-3-oxoprop-1-en-1-yl}-3,4-dihydro-1,8-naphthyridin-2(1H)-one]: 0.15 µM; `O=C1CCc2cc(/C=C/C(=O)N3CCCC[C@@H]3c3nc4ccccc4o3)cnc2N1` [Example 18, 6-{(1E)-3-[2-(1,3-Benzoxazol-2-yl)piperidin-1-yl]-3-oxoprop-1-en-1-yl}-3,4-dihydro-1,8-naphthyridin-2(1H)-one]: 1.8 µM; `Nc1ccc(/C=C/C(=O)N2CC(OCc3ccncc3)C2)cn1` [Example 23, 5-{(1E)-3-Oxo-3-[3-(pyridin-4-ylmethoxy)azetidin-1-yl]prop-1-en-1-yl}pyridin-2-amine]: 1.8 µM. As for `COC(=O)C1Cc2cc(/C=C/C(=O)N3CCC(COc4ccc(F)cc4)CC3)cnc2NC1=O` (stereo not drawn) [Example 25, Methyl 6-[(1E)-3-{4-[(4-fluorophenoxy)methyl]piperidin-1-yl}-3-oxoprop-1-en-1-yl]-2-oxo-1,2,3,4-tetrahydro-1,8-naphthyridine-3-carboxylate], the IC50 came out at 0.06 µM.

As for `O=C1CCc2cc(/C=C/C(=O)N3CC(Oc4ccccc4)C3)cnc2N1` [Example 6, 6-[(1E)-3-Oxo-3-(3-phenoxyazetidin-1-yl)prop-1-en-1-yl]-3,4-dihydro-1,8-naphthyridin-2(1H)-one], the IC50 worked out at 1 µM. Then `O=C1CCc2cc(/C=C/C(=O)N3CC(OCc4nccs4)C3)cnc2N1` [Example 20, 6-{(1E)-3-Oxo-3-[3-(1,3-thiazol-2-ylmethoxy)azetidin-1-yl]prop-1-en-1-yl}-3,4-dihydro-1,8-naphthyridin-2(1H)-one], with 0.057 µM; and `O=C1CCc2cc(/C=C/C(=O)N3CCC(CCO)CC3)cnc2N1` [Example 4, 6-{(1E)-3-[4-(2-Hydroxyethyl)piperidin-1-yl]-3-oxoprop-1-en-1-yl}-3,4-dihydro-1,8-naphthyridin-2(1H)-one], with 5.3 µM. Then `CC(=O)Nc1ccc(/C=C/C(=O)N2CC(OCc3ccncc3)C2)cn1` [Example 24, N-(5-{(1E)-3-Oxo-3-[3-(pyridin-4-ylmethoxy)azetidin-1-yl]prop-1-en-1-yl}pyridin-2-yl)acetamide], with 0.26 µM; and `NC(=O)c1cc2cc(/C=C/C(=O)N3CCC(COc4ccc(F)cc4)CC3)cnc2[nH]c1=O` [Example 27, 6-[(1E)-3-{4-[(4-Fluorophenoxy)methyl]piperidin-1-yl}-3-oxoprop-1-en-1-yl]-2-oxo-1,2-dihydro-1,8-naphthyridine-3-carboxamide], with 0.55 µM. Regarding `NC(=O)C1Cc2cc(/C=C/C(=O)N3CCC(COc4ccc(F)cc4)CC3)cnc2NC1=O` (stereo not drawn) [Example 26, 6-[(1E)-3-{4-[(4-Fluorophenoxy)methyl]piperidin-1-yl}-3-oxoprop-1-en-1-yl]-2-oxo-1,2,3,4-tetrahydro-1,8-naphthyridine-3-carboxamide], the 50% inhibitory concentration (IC50) came to 0.078 µM. Next, `O=C1CCc2cc(/C=C/C(=O)N3CCCCC3)cnc2N1` [Example 3, 6-[(1E)-3-Oxo-3-piperidin-1-ylprop-1-en-1-yl]-3,4-dihydro-1,8-naphthyridin-2(1H)-one]: 9.9 µM.

Values taken from patent publication US8846711B2, “Heterocyclic acrylamides and their use as pharmaceuticals” (Fab Pharma S.A.S., priority 2009, dated 2014).
